Data from PMC4627284, “High-throughput simultaneous screen and counterscreen identifies homoharringtonine as synthetic lethal with von Hippel-Lindau loss in renal cell carcinoma” (Oncotarget, 2015).
Like-named read-outs stand apart in the source and are kept apart here.

Key:
[1] = Toxicity in tumorgraft-bearing mice (mouse weight, signs); type: in vivo; conditions: 0.7 mg/kg by gavage twice daily, XP26 and XP144 cohorts
From the text: C. and D. Average weight of XP26 and XP144 cohort mice in grams (g) taken at the indicated days prior to and over the course of the indicated drug treatment. Day 0 represents the first day of treatment.
(§1) Tumorgrafts were generated and propagated as described previously, with tumor samples implanted subcutaneously into the flank of the mouse for drug trials. Briefly, 4- to 8-week-old NOD/SCID mice were anesthetized with isoflurane and implanted subcutaneously with 64 mm^3 tumor fragments (cohorts 2-20). Once tumors reached an average of at least ~250 mm^3, drug treatment was begun. The mice were treated with vehicle, 0.7 mg/kg homoharringtonine (HHT) via gavage twice daily, or 0.5 mg/kg rapamycin given by IP injection once every 48 hours. Tumor size (volume) was measured twice weekly and was obtained by multiplying tumor length, width, and depth using calipers. To assess toxicity, mouse weight was monitored once weekly.

advanced ccRCC = test system: advanced ccRCC; design: method as in PMID 9157078; conditions: 14 patients with advanced ccRCC, 1996; cited from earlier work
[2] = design: method as in PMID 3598625; conditions: cited from earlier work
[3] = test system: VHL-mutant patient-derived ccRCC tumorgraft lines; assay: ccRCC tumorgraft model, six VHL-mutant tumorgraft lines; type: in vivo, NOD/SCID mice
Procedure: (§2) We selected 6 independently-derived ccRCC tumorgraft lines that were confirmed to have VHL mutation. The mice (3-5 mice per tumorgraft line) were treated with either HHT (0.7 mg/kg), vehicle (as a negative control), or rapamycin (0.5 mg/kg; as a positive control). In total, 65 tumorgraft bearing mice were evaluated for these experiments in time courses lasting ~28 days, with tumor growth measured every 3 or 4 days.
(§3) Figure 3 HHT inhibits tumor growth in a ccRCC tumorgraft model A-F, Tumorgraft lines were treated with vehicle control, HHT (0.7 mg/kg), rapamycin (0.5 mg/kg), (or the combination, where indicated) and tumor growth was measured on the indicated days. Day 0 represents the first day of treatment.
as §1
Sections from tumors were stained with hematoxylin and eosin (H&E) as described previously.

XP144 tumorgraft line = assay: ccRCC tumorgraft model, line XP144; type: in vivo, NOD/SCID mice; conditions: 0.7 mg/kg by gavage twice daily
Procedure: as §2, §3
as §1, with “The mice were treated with vehicle, 0.7 mg/kg homoharringtonine (HHT) via gavage twice daily, or 0.5 mg/kg rapamycin given by IP injection once every 48 hours.” left out

[4] = Pharmacokinetic analysis after a single dose by oral gavage; type: in vivo, NOD/SCID mice; conditions: for AUC(0-inf) / Cmax / Tmax / half-life / Vd/F: female, NOD/SCID, mouse, plasma; for half-life: read-out: Terminal t½ (converted); for Vd/F: read-out: Vz/F
Procedure: We evaluated PK parameters after administration of a single dose of HHT by oral gavage to mice of 0.4 mg/kg, 0.7 mg/kg and 2 mg/kg (Table 1). […] Treatment with 0.4 mg/kg HTT by gavage most closely approximated human exposures. […] Given our in vitro studies, we sought to sustain 50 nM drug levels and mice were dosed with 0.7 mg/kg HHT given by gavage twice daily.
Female NOD/SCID mice (6-7 weeks) were administered homoharringtonine (HHT) by oral gavage. DMSO was used to wet the compound which was subsequently diluted in normal saline (pH 7.2) prior to administration (final DMSO < 5%). Animals were sacrificed in duplicate by inhalation overdose of CO2 at varying times post-dose and bled by cardiac puncture using acidified citrate dextrose (ACD) as the anticoagulant. Plasma was isolated after centrifugation at 9,600 x g for 10 minutes at 4°C. Protein was precipitated from 100 μl of plasma with 100 μl of acetonitrile containing 100 ng/ml of n-benzylbenzamide, which was used as an internal standard (IS), and 0.2% formic acid. After extensive vortexing, samples were incubated for 10 minutes at RT and spun twice at 16,100 x g for 5 minutes. The supernatant was evaluated by LC-MS/MS using a Shimadzu (Columbia, MD) Prominence LC coupled to an AB Sciex (Framingham, MA) 3200 Qtrap mass spectrometer. Extraction conditions were optimized prior to PK analysis for efficient and reproducible recovery over a three log range of concentrations. Analytical standards and quality control samples were prepared in a similar fashion by spiking commercial CD-1 mouse plasma (Bioreclamation, Westbury, NY) with known quantities of HHT. Chromatography conditions were as follows: an Agilent (Santa Clara, CA) C18 XDB, 5 micron packing, 50 × 4.6 mm size column was used for reverse phase chromatography. Buffer A consisted of dH2O + 0.1% formic acid and Buffer B consisted of methanol + 0.1% formic acid. Gradient conditions utilized were: 0.01-1.0 min 3% B, 1.0-1.5 min gradient to 100% B,1.5-3.0 min 100% B, 3.0-3.1 min gradient to 3% B, 3.1-4.1 min 3% B. HHT was detected as the 546.3 to 298.3 transition, and the IS (n-benzylbenzamide) as the 212.1 to 91.1 transition. Data were analyzed using Analyst software (AB Sciex.) A value 3x above the signal obtained in the blank plasma was designated as the limit of detection (LOD). The limit of quantitation (LOQ) was defined as the lowest concentration on the standard curve at which back calculation yielded a concentration within 20% of the theoretical value and above the LOD signal. The LOQ for HHT was 0.5 ng/ml. Pharmacokinetic properties were evaluated using the noncompartmental analysis tool in WinNonlin (Certara, Corp., St. Louis, MO). Sparse sampling was used for data analysis. Terminal half-life was calculated as the ln(2)/λz where λz is a first order rate constant associated with the terminal (log-linear) portion of the curve. It is estimated by linear regression of time vs. log concentration by the software for three or more of the final nonzero data points. Tmax (time to maximal drug concentration) and Cmax (maximal drug concentration) were determined by visual inspection. Area under the concentration time curve (AUCinf) from time 0 to infinity was determined by linear trapezoidal analysis. Apparent Volume of Distribution (Vz/F) is based on the terminal phase and is calculated as Dose/λz*AUCinf while Apparent Clearance (CL/F) is calculated as Dose/AUCinf. Calculation of Absolute Vz and CL requires knowledge of oral bioavailability (F) which is calculated as AUCoral/AUCiv X Dose iv/Doseoral but was not determined here because an IV PK was not performed.

COC(=O)C[C@](O)(CCCC(C)(C)O)C(=O)O[C@@H]1C(OC)=C[C@]23CCCN2CCc2cc4c(cc2[C@H]13)OCO4 [HHT, homoharringtonine]
body weight of treated mice [1]: maintained similar body weight compared to controls
outcome of phase II trial (advanced ccRCC): halted due to toxicity
blood-brain barrier penetration [2]: penetrates the blood-brain barrier
tumorgraft lines with tumor growth inhibited ([3]; 0.7 mg/kg by gavage twice daily, lines responding / lines tested): 2/6
synergistic effects with rapamycin in the tumorgrafts ([3]; HHT 0.7 mg/kg plus rapamycin 0.5 mg/kg): did not observe synergistic effects
histology of harvested tumors (H&E) ([3]; XP26 and XP144 cohorts): induced tumor cell necrosis
tumor weight smaller than vehicle-treated (XP144 tumorgraft line): 32%
tumor growth inhibition (tumor volume) vs vehicle (XP144 tumorgraft line; ~28 days): 43.0%
Cl/F ([4]; 0.4 mg/kg oral gavage, mice): 32.7 mL/h
Cl/F ([4]; 0.7 mg/kg oral gavage, mice): 30.5 mL/h
time HHT concentrations above 50 nM were sustained ([4]; 0.7 mg/kg oral gavage, mice, 50 nM equivalent to 27.3 ng/mL): ~ 6 hours
Cl/F ([4]; 2 mg/kg oral gavage, mice): 46.6 mL/h
AUC(0-inf) ([4]; 0.4 mg/kg oral gavage, mice): 251 ng·h/mL
Cmax ([4]; 0.4 mg/kg oral gavage, mice): 28.8 ng/mL
Tmax ([4]; 0.4 mg/kg oral gavage, mice): 0.17 h
half-life ([4]; 0.4 mg/kg oral gavage, mice): 1.86 h
Vd/F ([4]; 0.4 mg/kg oral gavage, mice): 0.0877 L
AUC(0-inf) ([4]; 0.7 mg/kg oral gavage, mice): 440 ng·h/mL
Cmax ([4]; 0.7 mg/kg oral gavage, mice): 57.8 ng/mL
Tmax ([4]; 0.7 mg/kg oral gavage, mice): 0.17 h
half-life ([4]; 0.7 mg/kg oral gavage, mice): 2.8 h
Vd/F ([4]; 0.7 mg/kg oral gavage, mice): 0.123 L
AUC(0-inf) ([4]; 2 mg/kg oral gavage, mice): 905 ng·h/mL
Cmax ([4]; 2 mg/kg oral gavage, mice): 97.2 ng/mL
Tmax ([4]; 2 mg/kg oral gavage, mice): 1.5 h
half-life ([4]; 2 mg/kg oral gavage, mice): 6.74 h
Vd/F ([4]; 2 mg/kg oral gavage, mice): 0.453 L
time at which Cmax was reached ([4]; two lower doses (0.4 and 0.7 mg/kg), first time point sampled): 10 min
